In patent publication US8846684B2 (priority 2011, dated 2014):
Read-outs that look alike come from different tables or passages of the source.

Columns and labels:
WEEV replicon = experiment: microbe, parasite or virus in culture; format: cell-based, Western equine encephalitis virus
NSV = format: cell-based, neuroadapted Sindbis virus
WEEV = format: cell-based, Western equine encephalitis virus
[1] = system: vaccine strain of Venezuelan equine encephalitis virus (VEEV); conditions: mouse, in vivo; cited from earlier work
wild-type VEEV = conditions: in vivo; cited from earlier work
[2] = Western equine encephalitis virus, read-out: Activity IC50 (μM)
[3] = Western equine encephalitis virus
[4] = Western equine encephalitis virus; read-out: 50 μM (% control) Luc

`O=C(NCc1ccccc1)C1CCN(C(=O)c2cc3ccccc3n2Cc2ccc(Cl)cc2)CC1` [CCG 102516, N-benzyl-1-(1-(4-chlorobenzyl)-1H-indole-2-carbonyl)piperidine-4-carboxamide] showed an IC50 (WEEV replicon; [2]) of 18.6 µM, an activity at 2 µM (WEEV replicon; Western equine encephalitis virus; read-out: Activity (% control LUC) 2 μM) of 88% and an activity at 10 µM (WEEV replicon; Western equine encephalitis virus; read-out: Activity (% control LUC) 10 μM) of 76.9%. The activity at 50 µM (WEEV replicon; Western equine encephalitis virus; read-out: Activity (% control LUC) 50 μM) was 59.7%, the “NSV titers (virion production, plaque assay)” value (NSV) was “significantly reduced” and the “WEEV titers (virion production, plaque assay)” value (WEEV) was “significantly reduced”.
For `C[C@@H](NC(=O)C1CCN(C(=O)c2cc3ccccc3n2Cc2ccc(Cl)cc2)CC1)c1ccccc1` [CCG 203926, (R)-1-(1-(4-chlorobenzyl)-1H-indole-2-carbonyl)-N-(1-phenylethyl)piperidine-4-carboxamide], the “activity in the replicon inhibition assay (in words)” value (WEEV replicon) was “active”, the activity at 2 µM (WEEV replicon; Western equine encephalitis virus, read-out: Activity (% control LUC) 2 μM) was 100% and the activity at 10 µM (WEEV replicon; Western equine encephalitis virus, read-out: Activity (% control LUC) 10 μM) was 55%. The activity at 50 µM (WEEV replicon; Western equine encephalitis virus, read-out: Activity (% control LUC) 50 μM) was 17%, the IC50 (WEEV replicon; [2]) was 8.7 µM and the “NSV titers (virion production, plaque assay)” value (NSV) was “significantly reduced”. The cytotoxicity (BSR-T7/C3 clone) was “relatively low cytotoxicity” and the “WEEV titers (virion production, plaque assay)” value (WEEV) was “significantly reduced”.
`O=C(c1cc2ccccc2n1Cc1ccc(Cl)cc1)N1CCC2C(=O)N(Cc3ccccc3)CC2C1` (centres unmarked) [CCG 206485, 2-benzyl-5-(1-(4-chlorobenzyl)-1H-indole-2-carbonyl)octahydro-1H-pyrrolo[3,4-c]pyridin-1-one] gave an IC50 (WEEV replicon; [3]) of 17.1 µM and an activity at 50 µM (WEEV replicon; [4]) of 39.4%.
`Cc1ccc(CCNCC2CCN(C(=O)c3cc4ccccc4n3Cc3ccc(F)cc3)CC2)cc1` [CCG 206486, (1-(4-fluorobenzyl)-1H-indol-2-yl)(4-(((4-methylphenethyl)amino)methyl)piperidin-1-yl)methanone] showed an IC50 (WEEV replicon; [3]) of 6.1 µM and an activity at 50 µM (WEEV replicon; [4]) of 0%.
For `C[C@@H](NCC1CCN(C(=O)c2cc3ccccc3n2Cc2ccc(F)cc2)CC1)c1ccccc1` [CCG 206499, (R)-(1-(4-fluorobenzyl)-1H-indol-2-yl)(4-(((1-phenylethyl)amino)methyl)piperidin-1-yl)methanone], the activity at 50 µM (WEEV replicon; [4]) was 0%.
`O=C(c1cc2ccccc2n1Cc1ccc(F)cc1)N1CCC(CNCc2ccccc2)CC1` [CCG 206500, (4-((benzylamino)methyl)piperidin-1-yl)(1-(4-fluorobenzyl)-1H-indol-2-yl)methanone] gave an IC50 (WEEV replicon; [3]) of 6.5 µM and an activity at 50 µM (WEEV replicon; [4]) of 0%.
Compound `C[C@H](NCC1CCN(C(=O)c2cc3ccccc3n2Cc2ccc(F)cc2)CC1)c1ccccc1` [CCG 206501, (S)-(1-(4-fluorobenzyl)-1H-indol-2-yl)(4-(((1-phenylethyl)amino)methyl)piperidin-1-yl)methanone] has an IC50 (WEEV replicon; [3]) of 8.9 µM and an activity at 50 µM (WEEV replicon; [4]) of 0%.
In the case of `O=C(c1cc2ccccc2n1Cc1ccc(F)cc1)N1CCC(CN2CCOCC2)CC1` [CCG 206502, (1-(4-fluorobenzyl)-1H-indol-2-yl)(4-(morpholinomethyl)piperidin-1-yl)methanone], the IC50 (WEEV replicon; [3]) is reported as 40.6 µM and the activity at 50 µM (WEEV replicon; [4]) is reported as 39.1%.
With `CN(Cc1ccccc1)CC1CCN(C(=O)c2cc3ccccc3n2Cc2ccc(F)cc2)CC1` [CCG 206503, (4-((benzyl(methyl)amino)methyl)piperidin-1-yl)(1-(4-fluorobenzyl)-1H-indol-2-yl)methanone] the IC50 (WEEV replicon; [3]) was 25.1 µM and the activity at 50 µM (WEEV replicon; [4]) was 28.2%.
Work on `CC(NC(=O)C1CCN(C(=O)c2cc3ccccc3n2Cc2ccc(Cl)cc2)CC1)C1Cc2ccccc2C1` (centres unmarked) [CCG 206549, 1-(1-(4-chlorobenzyl)-1H-indole-2-carbonyl)-N-(1-(2,3-dihydro-1H-inden-2-yl)ethyl)piperidine-4-carboxamide] yielded an IC50 (WEEV replicon; [3]) of 1.7 µM and an activity at 50 µM (WEEV replicon; [4]) of 36.9%.
Work on `O=C(NCC1CCc2ccccc21)C1CCN(C(=O)c2cc3ccccc3n2Cc2ccc(Cl)cc2)CC1` (centres unmarked) [CCG 206550, 1-(1-(4-chlorobenzyl)-1H-indole-2-carbonyl)-N-((2,3-dihydro-1H-inden-1-yl)methyl)piperidine-4-carboxamide] yielded an IC50 (WEEV replicon; [3]) of 7.1 µM and an activity at 50 µM (WEEV replicon; [4]) of 47.4%.
For `O=C(NCCc1ccncc1)C1CCN(C(=O)c2nc3ccccc3n2Cc2ccc(Cl)cc2)CC1` [CCG 206565, 1-(1-(4-chlorobenzyl)-1H-benzo[d]imidazole-2-carbonyl)-N-(2-(pyridin-4-yl)ethyl)piperidine-4-carboxamide], the IC50 (WEEV replicon; [3]) was 4.07 µM and the activity at 50 µM (WEEV replicon; [4]) was 12%.
Work on `CC(CNC(=O)C1CCN(C(=O)c2cc3ccccc3n2Cc2ccc(Cl)cc2)CC1)c1ccncc1` (centres unmarked) [CCG 206580, 1-(1-(4-chlorobenzyl)-1H-indole-2-carbonyl)-N-(2-(pyridin-4-yl)propyl)piperidine-4-carboxamide] yielded an IC50 (WEEV replicon; [3]) of 1.66 µM and an activity at 50 µM (WEEV replicon; [4]) of 13.4%.
`O=C(NCC1COc2cnccc21)C1CCN(C(=O)c2cc3ccccc3n2Cc2ccc(Cl)cc2)CC1` (centres unmarked) [CCG 206581, 1-(1-(4-chlorobenzyl)-1H-indole-2-carbonyl)-N-((2,3-dihydrofuro[2,3-c]pyridin-3-yl)methyl)piperidine-4-carboxamide] showed an IC50 (WEEV replicon; [3]) of 3.58 µM and an activity at 50 µM (WEEV replicon; [4]) of 8.6%.
Compound `O=C(NCc1ccccc1)C1CCN(C(=O)c2nccn2Cc2ccc(Cl)cc2)CC1` [CCG 206586, N-benzyl-1-(1-(4-chlorobenzyl)-1H-imidazole-2-carbonyl)piperidine-4-carboxamide] has an activity at 50 µM (WEEV replicon; [4]) of 69.5%.
For (−)-carbodine, the disease outcome [1] is given as “improved outcome”, the “lowering of peak CNS viral titers” value [1] is given as “half-log” and the “benefit following wild-type VEEV challenge” value (wild-type VEEV) is given as “no benefit”.
